Measurements taken from the NIST ThermoML archive (doi:10.1021/je100848r).
Numbers after ± are expanded uncertainties.

Key:
[1] = 101 kPa, Liquid
[2] = xn = mol fraction of the nth substance listed; settings: 101 kPa, Liquid

CCC(=O)[O-].OCC[NH2+]CCO [bis(2-hydroxyethyl)ammonium propanoate]
[1]
Settings	mass density [kg/m3]	viscosity [mPa·s]
293.15 K	1142.7 ± 2.4	740.28 ± 110
303.15 K	1136.1 ± 2.4	322.17 ± 32
313.15 K	1129.2 ± 2.4	157.97 ± 9.9
323.15 K	1125.2 ± 2.3	96.54 ± 3.5

CCCO [propan-1-ol] + CCC(=O)[O-].OCC[NH2+]CCO
[2], x2 = 0
Settings	mass density [kg/m3]	viscosity [mPa·s]
293.15 K	803.2 ± 1.9	2.141 ± 0.042
303.15 K	795.5 ± 1.9	1.788 ± 0.038
313.15 K	787.6 ± 1.9	1.391 ± 0.033
323.15 K	778.7 ± 2	1.098 ± 0.029

CCO [ethanol]
[1]
Settings	mass density [kg/m3]	viscosity [mPa·s]
293.15 K	789.3 ± 1.9	1.18 ± 0.03
303.15 K	780.7 ± 2	1.019 ± 0.028
313.15 K	772.5 ± 2	0.8424 ± 0.026
323.15 K	763.6 ± 2.1	0.7081 ± 0.024

CO [methanol]
[1]
Settings	mass density [kg/m3]	viscosity [mPa·s]
293.15 K	791.2 ± 1.9	0.6075 ± 0.023
303.15 K	781.8 ± 2	0.5535 ± 0.022
313.15 K	772.3 ± 2	0.501 ± 0.022
323.15 K	765.1 ± 2.1	0.4601 ± 0.021

CCC(=O)[O-].OCC[NH2+]CCO [bis(2-hydroxyethyl)ammonium propanoate] + CO
[2]
Settings	mass density, 293.15 K [kg/m3]	mass density, 303.15 K [kg/m3]	mass density, 313.15 K [kg/m3]	mass density, 323.15 K [kg/m3]	viscosity, 293.15 K [mPa·s]	viscosity, 303.15 K [mPa·s]	viscosity, 313.15 K [mPa·s]	viscosity, 323.15 K [mPa·s]
x1 = 0.0437	851.2 ± 1.7	842.3 ± 1.7	833.3 ± 1.7	826.8 ± 1.8	23.19 ± 1	13.01 ± 6	4.242 ± 0.17	2.639 ± 0.11
x1 = 0.1045	913.4 ± 1.4	905.2 ± 1.4	896.9 ± 1.5	891.1 ± 1.5	52.44 ± 1.1	20.18 ± 0.45	8.903 ± 0.21	5.509 ± 0.14
x1 = 0.2138	987.8 ± 1.2	980.3 ± 1.2	972.6 ± 1.2	967.8 ± 1.2	109.39 ± 4.8	42.76 ± 0.76	19 ± 0.34	11.76 ± 0.21
x1 = 0.2957	1024.6 ± 1.2	1017.4 ± 1.2	1010 ± 1.2	1005.5 ± 1.1	153.61 ± 9.4	62.12 ± 0.95	27.33 ± 0.44	16.99 ± 0.28
x1 = 0.4	1058.1 ± 1.4	1051.2 ± 1.3	1044 ± 1.3	1039.7 ± 1.3	210.82 ± 16	86.11 ± 2.6	38.58 ± 0.59	24.16 ± 0.37
x1 = 0.5038	1082.4 ± 1.5	1075.6 ± 1.5	1068.6 ± 1.5	1064.6 ± 1.4	269.65 ± 25	109.07 ± 4.7	50.82 ± 0.48	32.04 ± 0.48
x1 = 0.6125	1101.8 ± 1.7	1095.2 ± 1.7	1088.3 ± 1.6	1084.5 ± 1.6	337.06 ± 35	135.36 ± 7.4	65.92 ± 1.1	41.76 ± 0.62
x1 = 0.6981	1114 ± 1.8	1107.6 ± 1.8	1100.9 ± 1.8	1097.1 ± 1.7	399.51 ± 45	162.04 ± 10	80.81 ± 2.2	51.21 ± 0.49
x1 = 0.8026	1126.4 ± 2	1120 ± 2	1113.3 ± 2	1109.7 ± 1.9	496.91 ± 62	208.61 ± 16	104.49 ± 4.3	65.82 ± 1.1
x1 = 0.9121	1136.5 ± 2.3	1130.1 ± 2.2	1123.4 ± 2.2	1119.7 ± 2.1	636.96 ± 88	276.64 ± 26	135.75 ± 7.4	84.16 ± 2.5
x1 = 0.9587	1140 ± 2.4	1133.5 ± 2.3	1126.8 ± 2.3	1123 ± 2.2	692.41 ± 98	301.08 ± 29	147.67 ± 8.7	91.46 ± 3.1
x1 = 1	1142.7 ± 2.4	1136.1 ± 2.4	1129.2 ± 2.4	1125.2 ± 2.3	740.28 ± 110	322.17 ± 32	157.97 ± 9.9	96.54 ± 3.5
